# Literature values as cited in US20060177860A1, “Genetic markers in the HLA-DQBI gene associated with an adverse hematological response to drugs” (priority 2005, published 2006).
# Conditions: as taught by U.S. Pat. No. 5,312,819
smiles,measurement,value
O=C1O[C@H]([C@@H](O)CO)C(O)=C1O [L-ascorbic acid],effect of radical scavenger on formation of free radicals of clozapine,reduces the formation of free radicals of clozapine
